Measurements reported in US12357617B2, “Discovery of novel anti-infectives for gram negative pathogens” (priority 2018, dated 2025).
≈ marks a conversion by molar mass, not a printed value. Entries after “also recorded” stand apart in the source; their conditions may differ. Read-outs that look alike come from different tables or passages of the source.

Key:
Bp 1026b [1] = assay type: in vivo, BALB/c mice
Bt E264 = assay type: cell-based, Burkholderia thailandensis
Bm 23344 = assay type: cell-based, Burkholderia mallei
[2] = test system: S. aureus resistant isolate 2; assay: MIC by broth microdilution, S. aureus resistant isolate 2; assay type: cell-based; settings: Staphylococcus aureus
E. coli 25922 = assay: MIC by broth microdilution, E. coli 25922; assay type: cell-based, Escherichia coli; settings: for MIC: Escherichia coli, E. coli 25922, broth microdilution
Bp82.285 (BpeEF-OprC+) = assay: microbe, parasite or virus in culture; assay type: cell-based; settings: Burkholderia pseudomallei
Bp82.284 (BpeEF-OprC+) = assay: microbe, parasite or virus in culture; assay type: cell-based; settings: Burkholderia pseudomallei
Bp82 (BpeEF-OprC-) = assay: microbe, parasite or virus in culture; assay type: cell-based; settings: Burkholderia pseudomallei
[3] = test system: P. aeruginosa resistant isolate 1; assay: MIC by broth microdilution, P. aeruginosa resistant isolate 1; assay type: cell-based; settings: Pseudomonas aeruginosa
[4] = test system: S. aureus resistant isolate 1; assay: MIC by broth microdilution, S. aureus resistant isolate 1; assay type: cell-based; settings: Staphylococcus aureus
[5] = test system: P. aeruginosa resistant isolate 2; assay: MIC by broth microdilution, P. aeruginosa resistant isolate 2; assay type: cell-based; settings: Pseudomonas aeruginosa
E. coli DNA gyrase = target: T1, E. coli DNA gyrase (Escherichia coli, UniProt P0AES4+P0AES6); assay: E. coli DNA gyrase negative supercoiling assay; assay type: biochemical; settings: 100 uM or 500 uM, agarose gel
T1 construct: purchased New England Biolabs
T1 sequence (P0AES4 whole entry, one chain of several): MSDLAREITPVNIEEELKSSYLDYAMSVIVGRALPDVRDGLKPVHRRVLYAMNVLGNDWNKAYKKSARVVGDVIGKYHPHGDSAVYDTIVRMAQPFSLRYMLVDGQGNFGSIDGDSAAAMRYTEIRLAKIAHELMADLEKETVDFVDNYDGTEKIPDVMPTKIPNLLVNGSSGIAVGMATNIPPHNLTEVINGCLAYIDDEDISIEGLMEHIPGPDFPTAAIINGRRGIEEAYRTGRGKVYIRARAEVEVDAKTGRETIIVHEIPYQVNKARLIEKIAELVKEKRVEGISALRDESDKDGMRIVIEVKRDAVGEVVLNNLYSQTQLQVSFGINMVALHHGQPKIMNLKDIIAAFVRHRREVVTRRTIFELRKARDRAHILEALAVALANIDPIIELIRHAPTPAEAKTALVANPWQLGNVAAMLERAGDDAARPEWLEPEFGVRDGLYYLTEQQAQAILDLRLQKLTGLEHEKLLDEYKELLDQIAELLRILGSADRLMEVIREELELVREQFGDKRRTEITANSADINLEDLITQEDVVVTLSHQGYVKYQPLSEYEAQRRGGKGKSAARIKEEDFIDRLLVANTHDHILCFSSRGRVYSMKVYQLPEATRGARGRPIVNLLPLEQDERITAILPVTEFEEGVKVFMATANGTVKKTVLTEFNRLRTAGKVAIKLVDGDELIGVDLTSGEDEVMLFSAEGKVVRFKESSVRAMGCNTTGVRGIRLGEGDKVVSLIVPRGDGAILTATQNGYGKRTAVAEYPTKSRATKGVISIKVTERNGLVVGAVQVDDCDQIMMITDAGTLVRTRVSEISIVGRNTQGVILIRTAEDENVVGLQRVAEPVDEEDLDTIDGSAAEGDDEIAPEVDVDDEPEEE

Bp82.270 (BpeEF-OprC+) = assay: microbe, parasite or virus in culture; assay type: cell-based; settings: Burkholderia pseudomallei
[6] = test system: P. aueruginosa ATCC 27853; assay: MIC by broth microdilution, P. aeruginosa ATCC 27853; assay type: cell-based, Pseudomonas aeruginosa; settings: for MIC: Pseudomonas aeruginosa, ATCC27853
S. aureus ATCC 29213 = assay: MIC by broth microdilution, S. aureus ATCC 29213; assay type: cell-based; settings: Staphylococcus aureus, ATCC29213
Bt [7] = assay: microbe, parasite or virus in culture; assay type: cell-based, Burkholderia thailandensis; settings: for MIC: Burkholderia thailandensis, read-out: in vitro MIC
[8] = test system: E. coli resistant isolate 2; assay: MIC by broth microdilution, E. coli resistant isolate 2; assay type: cell-based; settings: Escherichia coli; E. coli resistant isolate 2 (Cip-resistant clinical isolate)
[9] = test system: E. coli resistant isolate 1; assay: MIC by broth microdilution, E. coli resistant isolate 1; assay type: cell-based; settings: Escherichia coli; E. coli resistant isolate 1 (Cip-resistant clinical isolate)
Bp MSHR305 = assay type: cell-based, Burkholderia pseudomallei
HEK293 cells = assay: CellTiter-Glo cell viability (cellular toxicity) assay; settings: for TD = toxic dose (dose at which HEK293 cell growth is significantly affected): Celltitre-Glo, HEK293 cells; for effect on HEK293 cell viability: concentrations 10-fold higher than the IC100, ATP-depletion assay
Bt [10] = assay type: cell-based, Burkholderia thailandensis
Bp 1026b [11] = assay type: cell-based, Burkholderia pseudomallei
[12] = test system: virulence loci (virG, bsaM, bimA, vgrG) of Bt E264; assay type: cell-based, Burkholderia thailandensis
[13] = reference 37; cited from earlier work
[14] = test system: T6SS-5 secretion activity (Hcp), Bp 1026b; assay type: cell-based, Burkholderia pseudomallei
Bt [15] = assay type: cell-based, Burkholderia thailandensis; remark: listed apart in the source
[16] = test system: T6SS-5 secretion activity (Hcp), Bt E264; assay type: cell-based, Burkholderia thailandensis

## CC(C)(O/N=C(\C(=O)N[C@@H]1C(=O)N2C(C(=O)[O-])=C(C[n+]3ccccc3)CS[C@H]12)c1csc(N)n1)C(=O)O [ceftazidime]
Bp 1026b [1]; mouse, in vivo
  time by which all animals succumbed to infection: by five days

## O=c1[nH]c(=O)n([C@H]2C[C@H](O)[C@@H](CO)O2)cc1F [F-UdR, fluorodeoxyuridine]
Bt E264
  plaque formation by Bt: lack of inhibitory activity

## O=c1[nH]cc(F)c(=O)[nH]1 [5-FU, 5-fluorouracil]
Bt E264; 25 μM
  plaque formation by Bt: completely abolished plaque formation

## O=c1[nH]c(=O)n([C@@H]2O[C@H](CO)[C@@H](O)[C@H]2O)cc1F [F-UR, Fluorouridine]
Bt E264
  plaque formation by Bt: minimally inhibitory; also recorded: fully inhibitory

## COc1cc(Cc2cnc(N)nc2N)cc(OC)c1OC [trimethoprim]
Bt E264
  inhibition of plaque formation by Bt E264 (screen and validation): inhibitors

## CC[C@@]1([C@@H]2O[C@@H]([C@H]3O[C@@](O)(CO)[C@H](C)C[C@@H]3C)C[C@@H]2C)CC[C@H]([C@]2(C)CC[C@]3(C[C@H](O)[C@@H](C)[C@@H]([C@@H](C)[C@@H](OC)[C@H](C)C(=O)O)O3)O2)O1 [monensin]
Bm 23344
  inhibition of plaque formation by Bm 23344 (validation): specific for Bm only

## O=C(O)c1cn(C2CC2)c2cc(N3CCNCC3)c(F)cc2c1=O [Cip, ciprofloxacin]
[2]
  MIC: > 7 µg/mL
E. coli 25922
  MIC: 2 µg/mL (≈ 6.04 µM)
Bp82.285 (BpeEF-OprC+)
  MIC: 16 to 32 µg/mL (≈ 48.3 to 96.6 µM)
Bp82.284 (BpeEF-OprC+)
  MIC: 16 µg/mL (≈ 48.3 µM)
Bp82 (BpeEF-OprC-)
  MIC: 1 µg/mL (≈ 3.02 µM)
[3]
  MIC: > 7 µg/mL
[4]
  MIC: > 7 µg/mL
[5]
  MIC: > 7 µg/mL
E. coli DNA gyrase
  negative supercoiling activity of E. coli DNA gyrase: inhibits the negative supercoiling activity
Bp82.270 (BpeEF-OprC+)
  MIC: 16 µg/mL (≈ 48.3 µM)
[6]
  MIC: 4 µg/mL (≈ 12.1 µM)
S. aureus ATCC 29213
  MIC: > 7 µg/mL
Bt [7]
  MIC: 1.3 µg/mL (≈ 3.92 µM)

## C[C@H]1COc2c(N3CCN(C)CC3)c(F)cc3c(=O)c(C(=O)O)cn1c23 [Levo, levofloxacin]
[8]
  MIC: > 7 µg/mL
[2]
  MIC: > 7 µg/mL
E. coli 25922
  MIC: 4 µg/mL (≈ 11.1 µM)
[3]
  MIC: > 7 µg/mL
[4]
  MIC: > 7 µg/mL
[5]
  MIC: > 7 µg/mL
[9]
  MIC: > 7 µg/mL
[6]
  MIC: 5 µg/mL (≈ 13.8 µM)
S. aureus ATCC 29213
  MIC: > 7 µg/mL

## C[C@@H]1CC[C@H]2[C@@H](C)C(=O)O[C@@H]3O[C@@]4(C)CC[C@@H]1[C@]32OO4 [artemisinin]
Bm 23344
  inhibition of plaque formation by Bm 23344 (validation): specific for Bm only

## CCn1cc(C(=O)O)c(=O)c2cc(F)c(N3CCOCC3)cc21 [BFX, 1-Ethyl-6-fluoro-7-(4-morpholinyl)-4-oxo-1,4-dihydro-3-quinolinecarboxylic acid]
[8]
  MIC: > 7 µg/mL
[2]
  MIC: > 7 µg/mL
E. coli 25922
  growth of E. coli ATCC 25922 (in words): inhibitory for the growth
  MIC: 4 µg/mL (≈ 12.5 µM)
Bp MSHR305; 5 μM
  plaque formation by Bp MSHR305: effective at ablating plaque formation
Bp82.285 (BpeEF-OprC+)
  MIC: 32 µg/mL (≈ 99.9 µM)
Bt E264
  fold lower concentration than Cip at which plaque formation by Bt is prevented: 8 fold
  inhibition of plaque formation / intercellular spread by Bt E264: near-complete inhibition
  inhibition of plaque formation by Bt E264 (screen and validation): consistently inhibit plaque formation
Bp82.284 (BpeEF-OprC+)
  MIC: 32 µg/mL (≈ 99.9 µM)
Bp82 (BpeEF-OprC-)
  MIC: 2 µg/mL (≈ 6.24 µM)
HEK293 cells
  TD = toxic dose (dose at which HEK293 cell growth is significantly affected): >50 µM
  effect on HEK293 cell viability: no effect on cell viability
[3]
  MIC: > 7 µg/mL
[4]
  MIC: > 7 µg/mL
[5]
  MIC: > 7 µg/mL
Bt [10]
  intracellular replication of Bt: inhibits intracellular replication
E. coli DNA gyrase
  negative supercoiling activity of E. coli DNA gyrase: inhibits the negative supercoiling activity
Bp 1026b [11]
  ED = effective dose (IC100) against Bp: 0.1 µM
  inhibition of plaque formation / intercellular spread by Bp 1026b: near-complete inhibition
  inhibition of plaque formation by Bp 1026b (validation): consistently inhibit plaque formation
Bp82.270 (BpeEF-OprC+)
  MIC: 32 µg/mL (≈ 99.9 µM)
Bp 1026b [1]; 10 days
  bacterial loads in liver and spleen compared to lung of surviving mice: low or undetectable bacterial loads
Bp 1026b [1]; mouse, in vivo
  bacterial loads in lungs, livers, and spleens: decreased relative to placebo and ceftazidime-treated controls
  histopathology: inflammation in pulmonary, hepatic, and splenic tissue: nearly undetectable inflammation
  overall efficacy compared to ceftazidime: superiority to ceftazidime
Bp 1026b [1]; n=8
  mice surviving the entire study duration (10 days): 63%
  mice surviving to five days post-infection: 100%
Bm 23344
  inhibition of plaque formation by Bm 23344 (validation): consistently inhibit plaque formation
[9]
  MIC: > 7 µg/mL
[6]
  growth of Pseudomonas aeruginosa ATCC 27853 (in words): inhibitory for the growth
  MIC: 4 µg/mL (≈ 12.5 µM)
S. aureus ATCC 29213
  MIC: > 7 µg/mL
Bt [7]
  dose needed to inhibit growth in laboratory medium: 5 µM
  in vitro growth of Bt: does not inhibit in vitro growth
  MIC: 2.6 µg/mL (≈ 8.12 µM)

## Nc1nc(=O)[nH]cc1F [5-FC, flucytosine]
[12]
  reduction in the expression of virG, bsaM, bimA, and vgrG: ≤ 4 fold
[13]
  bioavailability: good bioavailability
[14]
  expression of Hcp (pellet): does not affect expression of Hcp
  secretion of Hcp (supernatant): inhibits secretion of Hcp
Bp MSHR305
  plaque formation by Bp MSHR305: effective at ablating plaque formation
Bt E264
  inhibition of plaque formation by Bt E264 (screen and validation): inhibitors; also recorded: activity against Bp and Bt
  intercellular spread by time of addition: robustly inhibits intercellular spread irrespective of time of addition
  plaque formation by Bt: completely inhibits plaque formation; also recorded: completely abolished plaque formation
  plaque formation by Bt at increasing concentrations: inhibits plaque formation
Bt [15]
  actin-mediated intracellular motility (bacteria with actin tails): does not inhibit actin-mediated intracellular motility
HEK293 cells
  TD = toxic dose (dose at which HEK293 cell growth is significantly affected): >50 µM
  effect on HEK293 cell viability: no effect on cell viability
Bt [10]
  decrease in peak intracellular bacterial numbers: 3 fold
  intracellular replication of Bt: delays and decreases, but does not eliminate
  intracellular replication of a fusion defective mutant (ΔvgrG): does not inhibit the intracellular replication
Bp 1026b [11]
  ED = effective dose (IC100) against Bp: 3.1 µM
  inhibition of plaque formation by Bp 1026b (validation): activity against Bp and Bt
  plaque formation by Bp at increasing concentrations: inhibits plaque formation
Bp 1026b [1]; mouse, in vivo
  bacterial loads in liver and spleen compared to lung of surviving mice: low or undetectable bacterial loads
  bacterial loads in lungs, livers, and spleens: decreased, although to a lesser extent
  histopathology: inflammation in pulmonary, hepatic, and splenic tissue: significantly reduced inflammation
  mice surviving the entire study duration (10 days): 12%
  mice surviving to five days post-infection: 36.7%
  overall efficacy compared to ceftazidime: superiority to ceftazidime
Bm 23344
  inhibition of plaque formation by Bm 23344 (validation): ineffective
[16]
  expression of Hcp (pellet): does not affect expression of Hcp
  secretion of Hcp (supernatant): inhibits secretion of Hcp
Bt [7]
  in vitro growth of Bt: does not significantly inhibit in vitro growth
